From patent US12421216B2, “Voruciclib polymorphs and methods of making and using thereof” (MEI PHARMA, INC., priority 2019, dated 2025)
“Also recorded” adds a separate entry of the source. Counter-ions that a name gives are not always drawn. Like-named read-outs stand apart in the source and are kept apart here.

Columns and labels:
[1] = acid counterion; cited from earlier work
[2] = Physical stability upon exposure to accelerated aging conditions (AAC, 40° C./75% RH), re-analysis by HT-XRPD; format: physicochemical
[3] = Physical stability of solid forms upon drying under vacuum, HT-XRPD; format: physicochemical; settings: for Solid forms Vacuum: form after drying under deep vacuum (5 mbar, 18 h), HT-XRPD, label = ambient-dried form
Description: (§1) Amorphous voruciclib oxalate salt, generated by freeze-drying, was used to start the thermocycling experiments. Suspensions were prepared in the selected solvent systems at RT. Subsequently, the mixtures were subjected to a temperature profile. After the temperature profile, the solids were separated from the solutions by centrifugation and were dried at ambient conditions and under deep vacuum before being harvested and analyzed by HT-XRPD. The liquid phases were also dried under deep vacuum before being harvested and analyzed by HT-XRPD. All solids were exposed to AAC (40° C./75% RH, 2 days).
(§2) After the temperature profile, the solids were separated from the liquids by centrifugation and the solid phase was dried at ambient conditions and under deep vacuum (5 mbar) before being harvested and analyzed by HT-XRPD. The liquid phases were dried under deep vacuum (5 mbar) and the recovered solids were analyzed by HT-XRPD. All solids were then exposed to accelerated aging conditions (40° C./75% RH, 2 days) followed by HT-XRPD re-analysis.
as §1, with “voruciclib phosphate” for “voruciclib oxalate”, “profile. Upon completion of” for “profile. After”, “dried under” for “dried at”
as §2, with “dried under” for “dried at”, “(5 mbar, 18 h)” for “(5 mbar)”
Amorphous voruciclib malonate salt, generated by freeze-drying, was used to start the thermocycling experiments. Suspensions were prepared in the selected solvent systems at RT and were subjected to three thermocycles between 50 and 5° C., followed by aging at 25° C. for 3 days. Upon completion of the aging time, the solids were separated from the liquids by centrifugation and they were dried at ambient conditions and under deep vacuum (5 mbar) before being harvested and analyzed by HT-XRPD.
After the temperature profile the solids were separated from the solution by centrifugation and they were dried at ambient conditions and under deep vacuum before being harvested and analyzed by HT-XRPD.

[4] = Thermodynamic solubility of voruciclib HCl by the shake-flask method (HPLC); format: physicochemical; settings: RT; for Solubility classification: USP29
[5] = Solubility of salts in water and in 0.2 M phosphate buffer pH 6 at 37° C. after 4 hours (HPLC-DAD); format: physicochemical; settings: 37° C., 4 hours, listed as Voruciclib HCl salt
Description: Two sets of solubility experiments were performed. […] In the second set of solubility experiments about 5 mg of the salt was weighed in a standard 1.8 mL HPLC vial. Subsequently, aliquots of 200 μL of aqueous medium were added up to a maximum of 1 mL, while making observations regarding the dissolution behavior of the salts. The vials were left to equilibrate at 37° C. with continuous stirring (see Table 25 for details). After 4 hours the solids were separated from the liquid by centrifugation and the liquid phase was further filtrated through a […] PTFE filter to remove any particulate matter. The concentration of solute was determined by HPLC-DAD analysis. A calibration curve was made from two independent stock solutions of voruciclib prepared in acetonitrile/water. The pH was recorded at the end of the equilibration time.

For O=C(O)CCCC(=O)O [Glutaric], the pka1 [1] is given as 4.3 and the pka2 [1] is given as 5.3.

For O=C(O)C[C@H](O)C(=O)O [(−)-L-Malic], the pka1 [1] is listed as 3.5 and the pka2 [1] is listed as 5.1.

In the case of O=S(=O)(O)c1cccc2c(S(=O)(=O)O)cccc12 [Naphthalene-1,5-disulfonic], the pka1 [1] is listed as −3.4 and the pka2 [1] is listed as −2.6.

In the case of CCS(=O)(=O)O [Ethanesulfonic], the pka1 [1] is listed as 2.1.

For O=C(O)[C@H](O)[C@@H](O)[C@H](O)[C@H](O)CO [D-Gluconic], the pka1 [1] is given as 3.8.

In the case of CN1CCC(c2c(O)cc(O)c3c(=O)cc(-c4ccc(C(F)(F)F)cc4Cl)oc23)C1CO.O=C(O)C(=O)O (stereo not shown) [Oxa2 + peaks], the “Solid forms Ambient AAC” value ([2]; oxalate salt thermocycling, ambient-dried solids after AAC (40° C./75% RH, 2 days), HT-XRPD) is reported as “Oxa2 + peaks”, the “Solid forms Vacuum AAC” value ([2]; oxalate salt thermocycling, vacuum-dried solids after AAC (40° C./75% RH, 2 days), HT-XRPD) is reported as “Oxa2 + peaks” and the “Solid forms Vacuum” value ([3]; oxalate salt thermocycling solids) is reported as “Oxa2 + peaks”.

For O=C(O[C@@H](C(=O)O)[C@@H](OC(=O)c1ccccc1)C(=O)O)c1ccccc1 [Dibenzoyl-L-tartaric], the pka1 [1] is listed as 1.9.

For O=S(=O)(O)CCS(=O)(=O)O [Ethane-1,2-disulfonic], the pka1 [1] is listed as −2.1 and the pka2 [1] is listed as −1.5.

In the case of CN1CC[C@@H](c2c(O)cc(O)c3c(=O)cc(-c4ccc(C(F)(F)F)cc4Cl)oc23)[C@@H]1CO [voruciclib HCl], the solubility at 24 h ([4]; 1,2-dimethoxyethane, organic solvent or mixture, thermodynamic from solid, 1,2-Dimethoxyethane, 24 h, amorphous API, HPLC, read-out: Solubility) is reported as 1600 µg/mL, the solubility at 24 h ([4]; 1,4-dioxane, organic solvent or mixture, thermodynamic from solid, 1,4-Dioxane, 24 h, amorphous API, HPLC, read-out: Solubility) is reported as 400 µg/mL and the “solubility” value ([4]; 1-Propanol, 24 h, amorphous API, HPLC) is reported as 34500 µg/mL. For the same molecule, the solubility at 24 h ([4]; 1-propanol, organic solvent or mixture, thermodynamic from solid, 1-Propanol, 24 h, amorphous API, HPLC, read-out: Solubility) was 34000 µg/mL, the “solubility” value ([4]; 2-Butanol, 24 h, amorphous API, HPLC) was 10200 µg/mL and the “solubility” value ([4]; 2-Propanol, 24 h, amorphous API, HPLC) was 18800 µg/mL. It also gave a solubility at 24 h ([4]; 2-butanol, organic solvent or mixture, thermodynamic from solid, 2-Butanol, 24 h, amorphous API, HPLC, read-out: Solubility) of 10000 µg/mL, a solubility at 24 h ([4]; 2-methyltetrahydrofuran, organic solvent or mixture, thermodynamic from solid, 2-Methyltetrahydrofuran, 24 h, amorphous API, HPLC, read-out: Solubility) of 1600 µg/mL and a solubility at 24 h ([4]; 2-propanol, organic solvent or mixture, thermodynamic from solid, 2-Propanol, 24 h, amorphous API, HPLC, read-out: Solubility) of 19000 µg/mL. For the same molecule, the “solubility” value ([4]; Dimethyl sulfoxide, amorphous API, no suspension obtained, concentration of the solution after first aliquot) was greater than 400000 µg/mL, the “solubility” value ([4]; Ethanol, 24 h, amorphous API, HPLC) was 62000 µg/mL and the “solubility” value ([4]; Methanol, 24 h, amorphous API, HPLC) was 229500 µg/mL. The “solubility” value ([4]; N,N-Dimethylacetamide, amorphous API, no suspension obtained, concentration of the solution after first aliquot) was greater than 400000 µg/mL, the “solubility” value ([4]; N,N-Dimethylformamide, amorphous API, no suspension obtained, concentration of the solution after first aliquot) was greater than 400000 µg/mL and the solubility ([4]; N,N-dimethylacetamide, organic solvent or mixture, thermodynamic from solid, N,N-Dimethylacetamide, amorphous API, no suspension obtained, concentration of the solution after first aliquot, read-out: Solubility) was greater than 400000 µg/mL. For the same molecule, the solubility ([4]; N,N-dimethylformamide, organic solvent or mixture, thermodynamic from solid, N,N-Dimethylformamide, amorphous API, no suspension obtained, concentration of the solution after first aliquot, read-out: Solubility) was greater than 400000 µg/mL, the Solubility classification ([4]; 2-Propanol, 2-Butanol) was “Sparingly soluble” and the Solubility classification ([4]; Acetonitrile, Ethyl acetate, Methyl isobutyl ketone, Dichloromethane, Isopropyl acetate, 1,4-Dioxane, Diethyl ether, tert-Butyl methyl ether, Toluene) was “Very slightly soluble”. For the same molecule, the Solubility classification ([4]; Anisole, p-Xylene, Diisopropyl ether, Cumene, Cyclohexane, n-Hexane, n-Heptane, Hexanes) was “Practically insoluble”, the Solubility classification ([4]; Ethanol, 1-Propanol) was “Soluble” and the Solubility classification ([4]; N,N-Dimethylacetamide, Dimethyl sulfoxide, N,N-Dimethylformamide, Methanol) was “Freely soluble”. For the same molecule, the Solubility classification ([4]; Tetrahydrofuran, Acetone, Chloroform, 1,2-Dimethoxyethane, 2-Methyltetrahydrofuran, Ethyl formate, Methyl ethyl ketone) was “Slightly soluble”, the solubility at 24 h ([4]; acetone, organic solvent or mixture, thermodynamic from solid, Acetone, 24 h, amorphous API, HPLC, read-out: Solubility) was 3500 µg/mL and the solubility at 24 h ([4]; acetonitrile, organic solvent or mixture, thermodynamic from solid, Acetonitrile, 24 h, amorphous API, HPLC, read-out: Solubility) was 900 µg/mL. For the same molecule, the solubility at 24 h ([4]; anisole, organic solvent or mixture, thermodynamic from solid, Anisole, 24 h, amorphous API, HPLC, read-out: Solubility) was less than 100 µg/mL, the solubility at 24 h ([4]; chloroform, organic solvent or mixture, thermodynamic from solid, Chloroform, 24 h, amorphous API, HPLC, read-out: Solubility) was 3100 µg/mL and the solubility at 24 h ([4]; cumene, organic solvent or mixture, thermodynamic from solid, Cumene, 24 h, amorphous API, HPLC, read-out: Solubility) was less than 100 µg/mL. For the same molecule, the solubility at 24 h ([4]; cyclohexane, organic solvent or mixture, thermodynamic from solid, Cyclohexane, 24 h, amorphous API, HPLC, read-out: Solubility) was less than 100 µg/mL, the solubility at 24 h ([4]; dichloromethane, organic solvent or mixture, thermodynamic from solid, Dichloromethane, 24 h, amorphous API, HPLC, read-out: Solubility) was 500 µg/mL and the solubility at 24 h ([4]; diethyl ether, organic solvent or mixture, thermodynamic from solid, Diethyl ether, 24 h, amorphous API, HPLC, read-out: Solubility) was 200 µg/mL. It also gave a solubility at 24 h ([4]; diisopropyl ether, organic solvent or mixture, thermodynamic from solid, Diisopropyl ether, 24 h, amorphous API, HPLC, read-out: Solubility) of less than 100 µg/mL, a solubility ([4]; dimethyl sulfoxide, organic solvent or mixture, thermodynamic from solid, Dimethyl sulfoxide, amorphous API, no suspension obtained, concentration of the solution after first aliquot, read-out: Solubility) greater than 400000 µg/mL and a solubility at 24 h ([4]; ethanol, organic solvent or mixture, thermodynamic from solid, Ethanol, 24 h, amorphous API, HPLC, read-out: Solubility) of 62000 µg/mL. The solubility at 24 h ([4]; ethyl acetate, organic solvent or mixture, thermodynamic from solid, Ethyl acetate, 24 h, amorphous API, HPLC, read-out: Solubility) was 800 µg/mL, the solubility at 24 h ([4]; ethyl formate, organic solvent or mixture, thermodynamic from solid, Ethyl formate, 24 h, amorphous API, HPLC, read-out: Solubility) was 1600 µg/mL and the solubility at 24 h ([4]; hexanes, organic solvent or mixture, thermodynamic from solid, Hexanes, 24 h, amorphous API, HPLC, read-out: Solubility) was less than 100 µg/mL. It also gave a solubility at 24 h ([4]; isopropyl acetate, organic solvent or mixture, thermodynamic from solid, Isopropyl acetate, 24 h, amorphous API, HPLC, read-out: Solubility) of 500 µg/mL, a solubility at 24 h ([4]; methanol, organic solvent or mixture, thermodynamic from solid, Methanol, 24 h, amorphous API, HPLC, read-out: Solubility) of 230000 µg/mL and a solubility at 24 h ([4]; methyl ethyl ketone, organic solvent or mixture, thermodynamic from solid, Methyl ethyl ketone, 24 h, amorphous API, HPLC, read-out: Solubility) of 1100 µg/mL. It also gave a solubility at 24 h ([4]; methyl isobutyl ketone, organic solvent or mixture, thermodynamic from solid, Methyl isobutyl ketone, 24 h, amorphous API, HPLC, read-out: Solubility) of 700 µg/mL, a solubility at 24 h ([4]; n-heptane, organic solvent or mixture, thermodynamic from solid, n-Heptane, 24 h, amorphous API, HPLC, read-out: Solubility) of less than 100 µg/mL and a solubility at 24 h ([4]; n-hexane, organic solvent or mixture, thermodynamic from solid, n-Hexane, 24 h, amorphous API, HPLC, read-out: Solubility) of less than 100 µg/mL. For the same molecule, the solubility at 24 h ([4]; p-xylene, organic solvent or mixture, thermodynamic from solid, p-Xylene, 24 h, amorphous API, HPLC, read-out: Solubility) was less than 100 µg/mL, the solubility at 24 h ([4]; solvents other than DMA, DMF, DMSO and alcohols, organic solvent or mixture, thermodynamic from solid, solvents other than DMA, DMF, DMSO and alcohols, read-out: Solubility in all the other solvents) was less than 10000 µg/mL and the solubility at 24 h ([4]; tert-butyl methyl ether, organic solvent or mixture, thermodynamic from solid, tert-Butyl methyl ether, 24 h, amorphous API, HPLC, read-out: Solubility) was 100 µg/mL. The solubility at 24 h ([4]; tetrahydrofuran, organic solvent or mixture, thermodynamic from solid, Tetrahydrofuran, 24 h, amorphous API, HPLC, read-out: Solubility) was 9600 µg/mL, the solubility at 24 h ([4]; toluene, organic solvent or mixture, thermodynamic from solid, Toluene, 24 h, amorphous API, HPLC, read-out: Solubility) was 100 µg/mL and the “Solubility pH 6” value ([5]; 0.2M phosphate buffer (pH 6)) was 0.01 mg/mL. For the same molecule, the Solubility water ([5]; water) was “Gel”.

For O=S(=O)(O)c1ccc2ccccc2c1 [Naphthalene-2-sulfonic], the pka1 [1] is given as 0.2.

In the case of CN1CCC(c2c(O)cc(O)c3c(=O)cc(-c4ccc(C(F)(F)F)cc4Cl)oc23)C1CO.O=P(O)(O)O (stereo not shown) [Pho7], the “Physical stability upon exposure to AAC” value ([2]; 40° C./75% RH, 2 days, HT-XRPD before and after) is reported as “additional diffraction peaks were observed; also recorded: unstable upon exposure to AAC”, the “Physical stability upon drying under deep/high vacuum” value ([3]; oxalate, phosphate, malonate forms, 5 mbar, 18 h) is reported as “remained physically stable” and the “Solid forms Vacuum” value ([3]; phosphate salt thermocycling solids) is reported as “Pho7”.
